Laboratory results: patent US20190077795A1, “ARGININE […] INHIBITORS AND USES THEREOF” (Epizyme, Inc., priority 2014, published 2019)
Like-named read-outs stand apart in the source and are kept apart here.

Legend:
[1] = biological target: T1, human PRMT1 (Homo sapiens, UniProt Q99873); experiment: PRMT1 Biochemical Assay; settings: peptide substrate, 3H-SAM Flashplate assay; read-out: PRMT1 IC50
T1 construct: GST-tagged PRMT1; made in house; host or cells: High Five insect cells (baculovirus, pFastBac1)
T1 sequence (Q99873 with tags, fused parts or gaps): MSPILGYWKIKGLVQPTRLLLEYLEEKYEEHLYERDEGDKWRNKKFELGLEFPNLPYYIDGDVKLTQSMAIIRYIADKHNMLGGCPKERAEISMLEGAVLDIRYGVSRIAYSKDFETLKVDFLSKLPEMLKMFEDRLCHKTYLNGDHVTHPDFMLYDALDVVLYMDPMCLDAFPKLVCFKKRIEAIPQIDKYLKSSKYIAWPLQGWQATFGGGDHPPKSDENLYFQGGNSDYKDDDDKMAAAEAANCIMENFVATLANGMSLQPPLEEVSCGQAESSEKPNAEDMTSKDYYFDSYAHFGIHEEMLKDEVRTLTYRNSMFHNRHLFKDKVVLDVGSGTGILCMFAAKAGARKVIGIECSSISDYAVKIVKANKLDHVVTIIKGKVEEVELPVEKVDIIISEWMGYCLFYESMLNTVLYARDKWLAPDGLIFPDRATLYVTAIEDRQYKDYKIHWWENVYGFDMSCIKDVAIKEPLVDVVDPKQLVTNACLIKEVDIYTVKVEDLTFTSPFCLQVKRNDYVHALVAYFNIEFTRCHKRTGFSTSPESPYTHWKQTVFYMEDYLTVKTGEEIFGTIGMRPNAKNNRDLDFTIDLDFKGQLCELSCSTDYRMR
How it was run: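 GST-tagged PRMT1 from baculovirus-infected cells, preincubated with compounds 30 min at room temperature in 20 mM Bicine pH 7.6, 1 mM TCEP, 0.005% BSG, 0.002% Tween 20. Reaction started with ³H-SAM plus biotinylated peptide, stopped with 300 µM cold SAM.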

[2] = biological target: T2, human PRMT6 (Homo sapiens, UniProt Q96LA8); experiment: PRMT6 Biochemical Assay
T2 construct: Flag-PRMT6-His; made in house; host or cells: HEK 293F cells (BacMam baculovirus, pFastBacMam)
T2 sequence (Q96LA8 with tags, fused parts or gaps): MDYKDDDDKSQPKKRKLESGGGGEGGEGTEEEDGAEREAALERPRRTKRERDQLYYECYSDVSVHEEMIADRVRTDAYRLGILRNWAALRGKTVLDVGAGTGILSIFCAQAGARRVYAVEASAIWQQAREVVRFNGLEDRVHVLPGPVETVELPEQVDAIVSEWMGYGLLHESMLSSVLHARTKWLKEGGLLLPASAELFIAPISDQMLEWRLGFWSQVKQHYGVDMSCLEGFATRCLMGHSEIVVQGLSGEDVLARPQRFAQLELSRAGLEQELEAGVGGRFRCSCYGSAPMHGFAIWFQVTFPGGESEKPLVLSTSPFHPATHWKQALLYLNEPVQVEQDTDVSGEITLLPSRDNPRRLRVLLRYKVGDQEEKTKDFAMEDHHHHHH

[3] = test system: mono-methyl arginine in RKO cells; experiment: RKO Methylation Assay, In Cell Western (ICW); format: cell-based; settings: 72 hours
Description: RKO adherent cells were purchased from ATCC (American Type Culture Collection), Manassas, Va., USA. DMEM/Glutamax medium, penicillin-streptomycin, heat inactivated fetal bovine serum, 0.05% trypsin and D-PBS were purchased from Life Technologies, Grand Island, N.Y., USA. Odyssey blocking buffer, 800CW goat anti-rabbit IgG (H+L) antibody, and Licor Odyssey infrared scanner were purchased from Licor Biosciences, Lincoln, Nebr., USA. Mono-methyl arginine antibody was purchased from Cell Signaling Technology, Danvers, Mass., USA. Methanol was purchased from VWR, Franklin, Mass., USA. 10% Tween 20 was purchased from KPL, Inc., Gaithersburg, Md., USA. DRAQ5 was purchased from Biostatus Limited, Leicestershire, UK.
RKO adherent cells were maintained in growth medium (DMEM/Glutamax medium supplemented with 10% v/v heat inactivated fetal bovine serum and 100 units/mL penicillin-streptomycin) and cultured at 37° C. under 5% CO2.
Cell treatment, In Cell Western (ICW) for detection of mono-methyl arginine and DNA content.
Compound (100 nL) from a 96-well source plate was added directly to 384 well cell plate. Plates were incubated at 37° C., 5% CO2 for 72 hours. After three days of incubation, plates were brought to room temperature outside of the incubator for ten minutes and blotted on paper towels to remove cell media. 50 μL of ice cold 100% methanol was added directly to each well and incubated for 30 min at room temperature. After 30 min, plates were transferred to a Biotek EL406 plate washer and washed 2 times with 100 μL per well of wash buffer (1×PBS). Next 60 μL per well of Odyssey blocking buffer (Odyssey Buffer with 0.1% Tween 20 (v/v)) were added to each plate and incubated 1 hour at room temperature. Blocking buffer was removed and 20 μL per well of primary antibody was added (mono-methyl arginine diluted 1:200 in Odyssey buffer with 0.1% Tween 20 (v/v)) and plates were incubated overnight (16 hours) at 4° C. Plates were washed 5 times with 100 μL per well of wash buffer. […] The plates were washed 5 times with 100 μL per well wash buffer then 2 times with 100 μL per well of water. Plates were allowed to dry at room temperature then imaged on the Licor Odyssey machine which measures integrated intensity at 700 nm and 800 nm wavelengths. Both 700 and 800 channels were scanned.
First, the ratio for each well was determined by:
Each plate included fourteen control wells of DMSO only treatment (minimum activation) as well as fourteen control wells for maximum activation treated with 20 μM of a reference compound. The average of the ratio values for each control type was calculated and used to determine the percent activation for each test well in the plate. Reference compound was serially diluted three-fold in DMSO for a total of nine test concentrations, beginning at 20 μM. Percent activation was determined and EC30 curves were generated using triplicate wells per concentration of compound.

[4] = biological target: human PRMT8 (Homo sapiens, UniProt Q9NR22); experiment: PRMT8 Biochemical Assay; settings: PRMT8 IC50 (uM), peptide substrate, 3H-SAM Flashplate assay
Sequence of human PRMT8 (Q9NR22 whole entry): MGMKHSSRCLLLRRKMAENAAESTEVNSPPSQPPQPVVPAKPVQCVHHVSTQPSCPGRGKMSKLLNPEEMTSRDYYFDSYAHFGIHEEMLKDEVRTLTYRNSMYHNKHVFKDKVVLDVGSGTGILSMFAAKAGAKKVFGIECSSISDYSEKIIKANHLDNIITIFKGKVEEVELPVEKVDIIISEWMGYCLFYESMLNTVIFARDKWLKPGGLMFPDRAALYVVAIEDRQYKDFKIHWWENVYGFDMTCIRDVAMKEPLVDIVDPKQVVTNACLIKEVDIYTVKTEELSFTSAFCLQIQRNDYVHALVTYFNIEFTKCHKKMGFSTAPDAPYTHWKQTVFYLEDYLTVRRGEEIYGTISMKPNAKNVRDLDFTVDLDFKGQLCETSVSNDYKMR

[5] = peptide substrate, 3H-SAM Flashplate assay, read-out: PRMT6 IC50

SMILES | IC50 [1] [nM] | IC50 [2, 5] [µM] | ICW EC30 [3] [nM] | IC50 [4] [µM] | IC50 ([2]; PRMT6 IC50 (uM)) [µM]
CNCCN(C)Cc1c[nH]nc1-c1ccc(OCCOc2ccc(N3CCOCC3)cc2)cc1 [Compound 36] | 7.64 | 0.00635 | 127.1 | 0.0244 | –
CNCCN(C)Cc1c[nH]nc1-c1ccc(CC(C)C)cc1 [Compound 37] | 8.04 | – | 82 | 0.0136 | 0.0169
C=C(C)COc1c(Cl)cc(-c2n[nH]cc2CN(C)CCNC)cc1C(F)(F)F [Compound 39] | 8.31 | 0.0295 | 439 | 0.0122 | –
CNCCN(C)Cc1c[nH]nc1-c1ccc(OCCOc2ccc(OCC(C)C)cc2)cc1 [Compound 40] | 8.34 | 0.00739 | 505.1 | 0.0247 | –
CNCCN(C)Cc1c[nH]nc1-c1ccc(N(C)CCOc2ccc(OC)cc2)cc1 [Compound 41] | 8.8 | 0.00896 | 351.4 | 0.0334 | –
CNCCN(C)Cc1c[nH]nc1-c1ccc(OCCOc2ccc(C)cc2)cc1 [Compound 42] | 8.9 | 0.00498 | 185 | 0.0514 | –
CNCCN(C)Cc1c[nH]nc1-c1cc(C)c(OCC2CC2)c(C(F)(F)F)c1 [Compound 43] | 8.97 | – | 475 | 0.015 | 0.0326
CNCCN(C)Cc1ccnn1-c1ccc(COC)cc1 [Compound 44] | 9.25 | 0.0565 | 130 | 0.0235 | –
CCN(CCOc1cccc(OC)c1)c1ccc(-c2n[nH]cc2CN(C)CCNC)cc1 [Compound 45] | 9.26 | 0.0331 | 1140 | 0.0367 | –
CNCCN(C)Cc1c[nH]nc1-c1ccc(OCCOc2ccc(OCCN3CCOCC3)cc2)cc1 [Compound 46] | 9.49 | 0.00456 | 251.6 | 0.026 | –
CC(C)Cc1ccc(-c2n[nH]cc2CN(C)CCN)cc1C(F)(F)F [Compound 48] | 10.4 | 0.0427 | 3673 | 0.0237 | –
CNCCN(C)Cc1c[nH]nc1-c1ccc(OCCOc2cccc(N3CCOCC3)c2)cc1 [Compound 49] | 10.5 | 0.00705 | 746.8 | 0.0337 | –
CNCCN(C)Cc1c[nH]nc1-c1cc(F)c(OC2CCOCC2)c(C(F)(F)F)c1 [Compound 53] | 11 | 0.0189 | 479 | 0.0328 | –
CNCCN(C)Cc1ccnn1C1CCC2(CCOC2)CC1 (stereo not drawn) [Compound 54] | 11.2 | 0.0329 | 680 | 0.0535 | –
CNCCN(C)Cc1c[nH]nc1-c1cc(Cl)c(OCC(C)C)c(C(F)(F)F)c1 [Compound 56] | 11.5 | 0.0435 | 765 | 0.0168 | –
CNCCN(C)Cc1c[nH]nc1-c1ccc(N(C)CCOc2cccc(OC)c2)cc1 [Compound 57] | 11.8 | 0.00902 | 757.7 | 0.042 | –
CNCCN(C)Cc1c[nH]nc1-c1ccc(N2CC3CCCC3C2)nc1 (stereo not drawn) [Compound 58] | 11.9 | 0.00835 | 416.5 | 0.0254 | –
CNCCN(C)Cc1ccnn1C1CCC2(CCOCC2)CC1 [Compound 59] | 12.2 | 0.0347 | 246.4 | 0.042 | –
CCCOCCOc1cc(-c2n[nH]cc2CN(C)CCNC)cc(C(F)(F)F)c1 [Compound 60] | 12.7 | 1.2 | 1263 | 0.0525 | –
CNCCN(C)Cc1c[nH]nc1-c1ccc(OCCOc2ccccc2)cc1 [Compound 61] | 12.9 | 0.0114 | 130 | 0.0374 | –
CNCCN(C)Cc1c[nH]nc1-c1ccc(OCCOc2cccc(C(C)C)c2)cc1 [Compound 62] | 12.9 | 0.00431 | 1378 | 0.0363 | –
CNCCN(C)Cc1ccnn1C1CCC2(CCCO2)CC1 (stereo not drawn) [Compound 63] | 13.1 | 0.0317 | 172.7 | 0.0445 | –
CNCCN(C)Cc1c[nH]nc1-c1ccc(OCCCOC)c(OC2CCOCC2)c1 [Compound 64] | 13.9 | 0.0535 | 4628 | 0.249 | –
CCC(CC)Oc1ccc(-n2nc(C)cc2CN(C)CCNC)cc1 [Compound 65] | 14.1 | – | 215.6 | 0.0299 | 0.136
CNCCN(C)Cc1c[nH]nc1-c1ccc(N2CCCCC2)nc1 [Compound 66] | 14.2 | 0.0408 | 393.1 | 0.0371 | –
CNCCN(C)Cc1c[nH]nc1-c1ccc(OCCCOC)c(OCC2CCOC2)c1 (stereo not drawn) [Compound 68] | 14.8 | 0.038 | 3454 | 0.295 | –
CNCCN(C)Cc1c[nH]nc1-c1ccc(N(CCCN2CCOCC2)CC(C)C)nc1 [Compound 69] | 14.9 | 2.54 | 1337 | 0.0312 | –
CNCCN(C)Cc1c[nH]nc1-c1cc(CC(F)(F)F)cc(OCCOC)c1 [Compound 70] | 15.2 | – | 494 | 0.0511 | 1.27
CNCCN(C)Cc1c[nH]nc1-c1cc(CC(C)C)cc(OCCOC)c1 [Compound 71] | 15.3 | 4.39 | 680 | 0.0452 | –
CNCCN(C)Cc1c[nH]nc1-c1ccc(OCCOc2ccc(OCCOC)cc2)cc1 [Compound 72] | 15.3 | 0.0101 | 163 | 0.035 | –
